Reference: ChEMBL document CHEMBL1157451, “Effect of some P-glycoprotein modulators on Rhodamine-123 absorption in guinea-pig ileum” (Bioorg Med Chem Lett, 2008)

Test: Inhibition of P-glycoprotein-mediated rhodamine 123 absorption in guinea-pig ileum
Type: tissue-based
Conditions: Cavia porcellus

EC50 | SMILES
14.7 µM | COc1cccc(CCc2ccccc2OCc2ccccn2)c1
39.4 µM | CC/C(=C(\c1ccccc1)c1ccc(OCCN(C)C)cc1)c1ccccc1 [TAMOXIFEN]
